Experimental data reported in ChEMBL document CHEMBL1155967, “Design, synthesis, and examination of neuron protective properties of alkenylated and amidated dehydro-silybin derivatives” (J Med Chem, 2009).
Active and inactive are the calls of the source. The rule behind the calls is not given here.

How the values were obtained:
[1] = Antioxidant activity assessed as superoxide anion scavenging activity at 50 uM after 5 mins by spectrophotometry; format: functional
Liver [2] = assay: Inhibition of lipid peroxidation in Sprague-Dawley rat liver homogenate assessed as malondialdehyde formation after 1 hr by TBARS assay; format: functional, tissue-based
PC-12 [3] = assay: Neuroprotective activity against H2O2-induced injury in rat PC12 cells at 12.5 to 50 uM treated 2 hrs before H2O2 challenge measured after 4 hrs by MTT assay; format: functional, cell-based
[4] = target: T1, Xanthine dehydrogenase/oxidase (Rattus norvegicus, UniProt P22985); assay: Inhibition of rat liver xanthine oxidase at 75 uM after 2 hrs by spectrophotometry; conditions: for inhibition (INH): 75 µM
T1 sequence (P22985 whole entry): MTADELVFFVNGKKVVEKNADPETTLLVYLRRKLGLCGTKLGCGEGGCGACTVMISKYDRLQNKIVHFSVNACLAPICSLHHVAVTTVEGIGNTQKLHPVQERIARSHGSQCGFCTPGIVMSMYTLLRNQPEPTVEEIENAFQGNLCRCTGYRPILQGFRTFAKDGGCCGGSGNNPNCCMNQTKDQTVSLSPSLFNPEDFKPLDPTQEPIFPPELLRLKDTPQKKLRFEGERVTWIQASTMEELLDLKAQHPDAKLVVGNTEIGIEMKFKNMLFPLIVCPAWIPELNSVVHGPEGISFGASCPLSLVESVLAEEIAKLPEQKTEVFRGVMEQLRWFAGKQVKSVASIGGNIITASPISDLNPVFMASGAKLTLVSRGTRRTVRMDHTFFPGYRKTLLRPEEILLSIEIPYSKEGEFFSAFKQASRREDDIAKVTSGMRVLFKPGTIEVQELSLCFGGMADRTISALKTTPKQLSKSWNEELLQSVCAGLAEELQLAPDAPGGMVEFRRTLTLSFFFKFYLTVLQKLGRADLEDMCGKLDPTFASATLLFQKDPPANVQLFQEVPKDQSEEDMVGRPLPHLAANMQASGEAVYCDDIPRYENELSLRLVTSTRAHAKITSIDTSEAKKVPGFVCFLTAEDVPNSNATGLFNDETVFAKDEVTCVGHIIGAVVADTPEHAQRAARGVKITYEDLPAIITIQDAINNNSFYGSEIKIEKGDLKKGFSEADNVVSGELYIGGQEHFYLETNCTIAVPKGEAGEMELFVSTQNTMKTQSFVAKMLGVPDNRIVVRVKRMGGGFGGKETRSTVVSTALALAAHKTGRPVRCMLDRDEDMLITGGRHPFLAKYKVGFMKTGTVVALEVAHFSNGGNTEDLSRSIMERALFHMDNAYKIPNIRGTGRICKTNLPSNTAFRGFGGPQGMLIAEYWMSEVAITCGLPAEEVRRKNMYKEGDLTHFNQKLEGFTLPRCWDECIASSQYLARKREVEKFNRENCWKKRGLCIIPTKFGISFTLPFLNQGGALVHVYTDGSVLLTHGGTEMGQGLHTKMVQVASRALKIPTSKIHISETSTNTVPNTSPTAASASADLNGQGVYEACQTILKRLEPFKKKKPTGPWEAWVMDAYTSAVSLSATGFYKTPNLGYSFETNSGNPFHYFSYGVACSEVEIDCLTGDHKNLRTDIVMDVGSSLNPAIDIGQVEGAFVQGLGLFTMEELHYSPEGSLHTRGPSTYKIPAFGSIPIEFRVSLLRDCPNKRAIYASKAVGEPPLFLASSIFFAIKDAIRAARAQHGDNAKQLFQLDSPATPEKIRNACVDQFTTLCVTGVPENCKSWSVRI

[5] = Iron chelating activity assessed as inhibition of ferrozine-Fe2+ complex formation at 150 uM after 10 mins by spectrophotometry; format: functional
[6] = Iron chelating activity assessed as inhibition of ferrozine-Fe2+ complex formation after 10 mins by spectrophotometry; format: functional
[7] = target: T1, Xanthine dehydrogenase/oxidase; assay: Inhibition of rat liver xanthine oxidase after 2 hrs by spectrophotometry
[8] = tested on: Radical scavenging activity; assay: Antioxidant activity assessed as DPPH radical scavenging activity at 50 uM after 30 mins by spectrophotometry; format: functional
PC-12 [9] = assay: Neuroprotective activity against H2O2-induced injury in rat PC12 cells assessed as increase in cell viability at 50 uM treated 2 hrs before H2O2 challenge measured after 4 hrs by MTT assay; format: functional
PC-12 [10] = assay: Neuroprotective activity against H2O2-induced injury in rat PC12 cells treated 2 hrs before H2O2 challenge measured after 4 hrs by MTT assay; format: functional, cell-based
[11] = tested on: Radical scavenging activity; assay: Antioxidant activity assessed as DPPH radical scavenging activity after 30 mins by spectrophotometry; format: functional
[12] = Antioxidant activity assessed as superoxide anion scavenging activity after 5 mins by spectrophotometry; format: functional
[13] = Ratio of quercetin EC50 to compound EC50 for iron chelating activity
Liver [14] = assay: Ratio of silybin IC50 to compound IC50 for inhibition of lipid peroxidation in Sprague-Dawley rat liver homogenate; format: functional, tissue-based
Liver [15] = assay: Ratio of 2,3-dehydrosilybin IC50 to compound IC50 for inhibition of lipid peroxidation in Sprague-Dawley rat liver homogenate; format: functional, tissue-based
Liver [16] = assay: Ratio of quercetin IC50 to compound IC50 for inhibition of lipid peroxidation in Sprague-Dawley rat liver homogenate; format: functional, tissue-based
[17] = Ratio of 2,3-dehydrosilybin EC50 to compound EC50 for iron chelating activity; format: functional

| SMILES | Activity [1] | IC50 (Liver [2]) | inhibition (INH) [4] | inhibition [5] | EC50 [6] | Activity (PC-12 [9]) | EC50 (PC-12 [10]) | further results |
| --- | --- | --- | --- | --- | --- | --- | --- | --- |
| COc1cc(C2Oc3cc(-c4oc5cc(OCC(=O)Nc6ccc(Cl)cc6)cc(O)c5c(=O)c4O)ccc3OC2CO)ccc1OCC(=O)Nc1ccc(Cl)cc1 (racemic) | inactive | 153 µM | Active |  |  |  |  | Activity (PC-12 [3]): Active |
| CCOC(=O)COc1cc(O)c2c(=O)c(O)c(-c3ccc4c(c3)OC(c3ccc(OCC(=O)OCC)c(OC)c3)C(CO)O4)oc2c1 (racemic) | inactive | 36.4 µM |  | 53.5% | 116 µM |  |  | IC50 [7]: 70.8 µM; inhibition at 75 µM [4]: > 50% |
| CCN(CC)C(=O)COc1cc(O)c2c(=O)c(O)c(-c3ccc4c(c3)OC(c3ccc(O)c(OC)c3)C(CO)O4)oc2c1 (racemic) | Active | 0.7 µM | Active | 52.5% | 113 µM |  |  | inhibition [8]: 46.4% |
| COc1ccc(NC(=O)COc2cc(O)c3c(=O)c(O)c(-c4ccc5c(c4)OC(c4ccc(OCC(=O)Nc6ccc(OC)cc6)c(OC)c4)C(CO)O5)oc3c2)cc1 (racemic) | inactive | 37 µM | Active |  |  |  |  | Activity (PC-12 [3]): Active |
| CCN(CC)C(=O)COc1cc(O)c2c(=O)c(O)c(-c3ccc4c(c3)OC(c3ccc(OCC(=O)N(CC)CC)c(OC)c3)C(CO)O4)oc2c1 (racemic) | inactive | 5.8 µM | Active | 63% | 59.9 µM |  |  | Activity (PC-12 [3]): Active |
| C=CCOc1cc(O)c2c(=O)c(OCC=C)c(-c3ccc4c(c3)OC(c3ccc(OCC=C)c(OC)c3)C(CO)O4)oc2c1 (racemic) | inactive | 54.8 µM |  |  |  |  |  |  |
| COc1cc(C2Oc3cc(-c4oc5cc(O)cc(O)c5c(=O)c4O)ccc3OC2CO)ccc1O (stereo unspecified) [DEHYDROSILYLBIN] |  | 10.7 µM |  | 58% | 118 µM | 40% | 30.2 µM | inhibition [8]: 42.2%; IC50 [7]: 80.3 µM |
| O=c1c(O)c(-c2ccc(O)c(O)c2)oc2cc(O)cc(O)c12 [QUERCETIN] |  | 4.6 µM |  | 43.5% | 188 µM |  | 58.4 µM | EC50 [11]: 3.4 µM; EC50 [12]: 38.6 µM |
| C=CCCOc1cc(O)c2c(=O)c(OCCC=C)c(-c3ccc4c(c3)OC(c3ccc(OCCC=C)c(OC)c3)C(CO)O4)oc2c1 (racemic) | inactive | 67.5 µM |  |  |  | 40% | 79.4 µM |  |
| COc1ccc(C(=O)OCC2Oc3ccc(-c4oc5cc(O)cc(O)c5c(=O)c4O)cc3OC2c2ccc(O)c(OC)c2)cc1 (racemic) | inactive | 104 µM |  |  |  |  |  |  |
| Oc1ncnc2[nH]ncc12 [ALLOPURINOL] |  |  |  |  |  |  |  | IC50 [7]: 21.2 µM |
| C=CCCOc1cc(O)c2c(=O)c(O)c(-c3ccc4c(c3)OC(c3ccc(OCCC=C)c(OC)c3)C(CO)O4)oc2c1 (racemic) | inactive | 36.2 µM |  |  | 145 µM | 40% | 37.7 µM |  |
| COc1cc(C2Oc3cc(-c4oc5cc(OCC=C(C)C)cc(O)c5c(=O)c4O)ccc3OC2CO)ccc1OCC=C(C)C (racemic) | inactive | 28.1 µM |  |  | 138 µM | 40% | 47.4 µM | inhibition at 75 µM [4]: 18.9% |
| COc1cc(C2Oc3cc(-c4oc5cc(OCC(=O)Nc6ccc(C)cc6)cc(O)c5c(=O)c4O)ccc3OC2CO)ccc1OCC(=O)Nc1ccc(C)cc1 (racemic) | inactive | 74.1 µM | Active |  |  |  |  | Activity (PC-12 [3]): Active |
| COc1cc(C2Oc3cc([C@H]4Oc5cc(O)cc(O)c5C(=O)[C@@H]4O)ccc3OC2CO)ccc1O (stereo partly specified) [SILIBININ] |  | 84.8 µM | Not Active |  |  |  |  | IC50 [7]: 80.3 µM |
| COc1cc(C2Oc3cc(-c4oc5cc(OCC(=O)N6CCCC6)cc(O)c5c(=O)c4O)ccc3OC2CO)ccc1OCC(=O)N1CCCC1 (racemic) | inactive | 0.9 µM | Active | 87% | 23.2 µM |  |  | Ratio EC50 [13]: 7; inhibition [8]: 44.2%; Ratio IC50 (Liver [14]): 93; Ratio IC50 (Liver [15]): 11; Ratio IC50 (Liver [16]): 5; Ratio EC50 [17]: 4; Activity (PC-12 [3]): Active |
| C=CCOc1cc(O)c2c(=O)c(O)c(-c3ccc4c(c3)OC(c3ccc(OCC=C)c(OC)c3)C(CO)O4)oc2c1 (racemic) | inactive | 22.6 µM |  | 72.5% | 129 µM | 40% | 20.5 µM |  |
| O=C([O-])CN(CCN(CC(=O)[O-])CC(=O)O)CC(=O)O.[Na+].[Na+] [EDETATE DISODIUM ANHYDROUS] |  |  |  | 91.5% | 16.4 µM |  |  |  |
| COc1cc(C2Oc3cc(-c4oc5cc(OCC(=O)Nc6ccc(Cl)cc6Cl)cc(O)c5c(=O)c4O)ccc3OC2CO)ccc1OCC(=O)Nc1ccc(Cl)cc1Cl (racemic) | inactive | 20.7 µM | Active |  |  |  |  | Activity (PC-12 [3]): Active |
| COc1cc(C2Oc3cc(-c4oc5cc(OCC=C(C)C)cc(O)c5c(=O)c4O)ccc3OC2CO)ccc1O (racemic) | Active | 23.3 µM |  | 51% | 137 µM | 40% | 32 µM |  |
| O=C1O[C@H]([C@@H](O)CO)C(O)=C1O |  |  |  |  |  |  |  | inhibition [8]: 12.6% |
| COc1cc(C2Oc3cc(-c4oc5cc(O)cc(O)c5c(=O)c4O)ccc3OC2COC(=O)c2cccc(Cl)c2)ccc1O (racemic) | inactive | 16.9 µM |  |  |  | 40% | 46.5 µM |  |
